# Data from patent publication US9101160B2, “Condiments with high-potency sweetener” (The Coca-Cola Company, priority 2005, dated 2015).
# Assay type: physicochemical
# Description: A solution of rebaudioside A ( >97% pure by HPLC ) was prepared in double distilled water (12.5 gm in 50 mL, 25% concentration) by stirring the mixture at 40° C. for 5 minutes. An amorphous form of rebaudioside A was formed by immediately using the clear solution for spray drying with the Lab-Plant spray drier SD-04 instrument (Lab-Plant Ltd., West Yorkshire, U.K.). The solution was fed through the feed pump into the nozzle atomizer which atomized it into a spray of droplets with the help of a constant flow of nitrogen/air. […] This dry powder (11-12 g, H2O 6.74%) was discharged continuously from the drying chamber and was collected in a bottle.
substance,measurement,value
rebaudioside A [Form 4],solubility in water at room temperature,> 35.0%
